Assay results reported in the supplement of paper PMC10307832.

How the values were obtained:
Assay in all cases: relative viability (nuclei count vs DMSO), 5 days (fraction); higher = more cells survive
BI-D1870 + Trametinib = compound: CC(C)CCN1c2nc(Nc3cc(F)c(O)c(F)c3)ncc2N(C)C(=O)C1C [BI-D1870] + CC(=O)Nc1cccc(-n2c(=O)n(C3CC3)c(=O)c3c(Nc4ccc(I)cc4F)n(C)c(=O)c(C)c32)c1 [Trametinib] (partner 0.02 µM)
In short: (§1)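 Dosing by pin tool came one day after lung cancer cell lines were seeded in 1536-well plates, using either one drug or a fixed anchor-drug dose plus five library-drug doses (not always all listed) in √10 steps. After 5 days, nuclei were counted on 4× images. Relative viability is treated-well nuclei count divided by vehicle-well nuclei count, and values are medians of duplicate plates.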

Zebularine + Pemetrexed = compound: O=c1ncccn1[C@@H]1O[C@H](CO)[C@@H](O)[C@H]1O [Zebularine] + Nc1nc2[nH]cc(CCc3ccc(C(=O)N[C@@H](CCC(=O)O)C(=O)O)cc3)c2c(=O)[nH]1 [Pemetrexed] (partner 0.2 µM)
In short: as §1

BI-D1870 + Crizotinib = compound: CC(C)CCN1c2nc(Nc3cc(F)c(O)c(F)c3)ncc2N(C)C(=O)C1C [BI-D1870] + C[C@@H](Oc1cc(-c2cnn(C3CCNCC3)c2)cnc1N)c1c(Cl)ccc(F)c1Cl [Crizotinib] (partner 1 µM)
In short: as §1

Zebularine + Bortezomib = compound: O=c1ncccn1[C@@H]1O[C@H](CO)[C@@H](O)[C@H]1O [Zebularine] + CC(C)C[C@H](NC(=O)[C@H](Cc1ccccc1)NC(=O)c1cnccn1)B(O)O [Bortezomib] (partner 0.002 µM)
In short: as §1

UMC-11
relative viability (BI-D1870 + Trametinib; first compound 0.04 µM): 0.701 | relative viability (BI-D1870 + Trametinib; first compound 0.1265 µM): 0.682 | relative viability (BI-D1870 + Trametinib; first compound 0.4 µM): 0.688 | relative viability (BI-D1870 + Trametinib; first compound 1.265 µM): 0.774 | relative viability (BI-D1870 + Trametinib; first compound 4 µM): 0.352 | relative viability (Zebularine + Pemetrexed; first compound 1 µM): 0.809 | relative viability (Zebularine + Pemetrexed; first compound 3.162 µM): 0.724 | relative viability (Zebularine + Pemetrexed; first compound 10 µM): 0.388 | relative viability (Zebularine + Pemetrexed; first compound 31.62 µM): 0.649 | relative viability (Zebularine + Pemetrexed; first compound 100 µM): 0.417 | relative viability (BI-D1870 + Crizotinib; first compound 0.04 µM): 0.477 | relative viability (BI-D1870 + Crizotinib; first compound 0.1265 µM): 0.585 | relative viability (BI-D1870 + Crizotinib; first compound 0.4 µM): 0.533 | relative viability (BI-D1870 + Crizotinib; first compound 1.265 µM): 0.694 | relative viability (BI-D1870 + Crizotinib; first compound 4 µM): 0.172 | relative viability (Zebularine + Bortezomib; first compound 1 µM): 0.728 | relative viability (Zebularine + Bortezomib; first compound 3.162 µM): 0.844 | relative viability (Zebularine + Bortezomib; first compound 10 µM): 0.45 | relative viability (Zebularine + Bortezomib; first compound 31.62 µM): 0.538 | relative viability (Zebularine + Bortezomib; first compound 100 µM): 0.297
